Data set [1] concerns the target FP receptor (Felis catus, UniProt A0ABI7XJ69). Briefly: FP activity, contraction of the isolated feline iris sphincter. The note with it: read-out: EC50 (nM) FP.
Protocol: (§1) Activity at different prostanoid receptors was measured in vitro in isolated smooth muscle preparations. FP-activity was measured as contraction of the isolated feline iris sphincter. EP4 -activity was measured as relaxation of smooth muscle of isolated rabbit jugular vein. TP-vasoconstrictor activity was measured as contraction of rings of the isolated rat thoracic aorta.
Data set [2] deals with EP3. Briefly: EP3 activity in isolated smooth muscle preparations. The note with it: read-out: EC50 (nM) EP3.
Protocol: as §1
Data set [3] deals with DP/EP2. Nature of the data set: DP/EP2 activity in isolated smooth muscle preparations. The note with it: read-out: EC50 (nM) DP/EP2.
Protocol: as §1
Data set [4] deals with EP4 (Oryctolagus cuniculus, UniProt Q28691). The note with it: for IC25: read-out: IC25 EP4.
Protocol: as §1
The test system of data set [5] is ocular surface. To be noted: cited from earlier work.
The conditions of data set [6]: cited from earlier work; for ocular hypotensive activity: in vivo.
The target of data set [7] is T1, TP (Rattus norvegicus, UniProt P34978).
T1 sequence (P34978 1-341): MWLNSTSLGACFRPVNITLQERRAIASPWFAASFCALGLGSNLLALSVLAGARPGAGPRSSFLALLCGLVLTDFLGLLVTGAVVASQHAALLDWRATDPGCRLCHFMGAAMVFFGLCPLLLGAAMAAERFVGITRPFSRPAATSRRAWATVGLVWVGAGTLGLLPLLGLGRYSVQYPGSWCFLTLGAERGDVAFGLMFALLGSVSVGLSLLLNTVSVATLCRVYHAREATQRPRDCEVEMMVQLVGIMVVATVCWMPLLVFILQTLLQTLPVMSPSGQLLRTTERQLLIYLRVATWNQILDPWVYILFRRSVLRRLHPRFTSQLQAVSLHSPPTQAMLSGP
Protocol: as §1

The subject of data set [8] is EP1. Nature of the data set: EP1 activity in isolated smooth muscle preparations. To be noted: read-out: EC50 (nM) EP1.
Protocol: Activity at different prostanoid receptors was measured in vitro in isolated smooth muscle preparations.
Data set [9] has as its system intraocular pressure in the dog. Briefly: Dog intraocular pressure by applanation pneumatonometry. It counts as in vivo. The note with it: 0.1%, 25 μl to ocular surface. As to the method: The effects of certain of the compounds of the working examples on intraocular pressure are also measured. The compounds of Examples 3 and 7 are prepared at 0.1% w/v concentration in a vehicle comprising 0.1% polysorbate 80 and 10 mM tris (hydroxy methyl) aminomethane hydrochloride (TRIS) base. Dogs are treated by administering 25 μl to the ocular surface, while the contralateral eye receives vehicle as a control. Intraocular pressure is measured by applanation pneumatonometry. Dog intraocular pressure is measured immediately before drug administration and at 2, 4, 6 and 24 hours thereafter. Each of the compounds tested lower intraocular pressure in the dog model.

We go through 13 compounds from patent US5658897A, “Cyclopentane(ene) heptanoic or cyclopentane(ene) heptenoic acid, 2-hydrocarbyl phosphinyloxyalkyl or phosphonamidoalkyl as therapeutic agents” (Allergan, priority 1996, dated 1997).

“Also recorded” adds a separate entry of the source. Where two headings read alike, the source gives them in different places.

FP receptor, sequence (A0ABI7XJ69 1-366): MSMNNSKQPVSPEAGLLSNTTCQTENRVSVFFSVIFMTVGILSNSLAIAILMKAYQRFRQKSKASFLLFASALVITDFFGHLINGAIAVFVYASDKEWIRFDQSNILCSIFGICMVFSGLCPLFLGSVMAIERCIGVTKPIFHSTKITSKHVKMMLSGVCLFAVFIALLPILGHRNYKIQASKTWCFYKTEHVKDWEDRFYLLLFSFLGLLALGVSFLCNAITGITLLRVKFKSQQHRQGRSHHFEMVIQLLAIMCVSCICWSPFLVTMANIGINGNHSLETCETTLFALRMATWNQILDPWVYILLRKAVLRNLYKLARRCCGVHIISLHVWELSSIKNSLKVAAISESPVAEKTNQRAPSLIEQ
EP4, sequence (Q28691 whole entry): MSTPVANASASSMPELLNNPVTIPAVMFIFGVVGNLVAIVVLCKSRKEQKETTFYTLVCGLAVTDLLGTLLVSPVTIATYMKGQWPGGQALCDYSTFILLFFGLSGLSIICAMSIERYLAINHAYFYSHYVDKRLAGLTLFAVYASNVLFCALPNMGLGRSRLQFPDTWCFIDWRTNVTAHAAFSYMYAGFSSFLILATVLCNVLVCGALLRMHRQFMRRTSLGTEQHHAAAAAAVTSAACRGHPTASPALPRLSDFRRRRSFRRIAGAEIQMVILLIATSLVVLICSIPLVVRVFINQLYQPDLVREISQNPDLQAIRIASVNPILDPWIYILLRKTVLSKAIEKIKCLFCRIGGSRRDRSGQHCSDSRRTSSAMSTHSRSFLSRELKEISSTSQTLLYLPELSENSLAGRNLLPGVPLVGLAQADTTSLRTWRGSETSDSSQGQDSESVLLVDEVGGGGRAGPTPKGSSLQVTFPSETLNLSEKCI

With `O=C(O)CCC/C=C\C[C@@H]1[C@@H](COP(=O)(O)CCc2ccccc2)[C@H](O)C[C@@H]1O`, the EC50 in data set [1] is more than 10000 nM.
What is called IC25 is the point of the concentration-response curve where the effect stands at 25%. With `COC(=O)CCC/C=C\C[C@@H]1[C@@H](COP(=O)(O)CCc2ccccc2)[C@H](O)C[C@@H]1O`, the EC50 in data set [2], in [3] and in data set [1] was more than 10000 nM each time. The “FP/EP4 Ratio” value in data set [4] is more than 27. In addition, the IC25 in data set [4] stood at 0.365 µM.
With `CCOP(=O)(CCc1ccccc1)OC[C@@H]1[C@@H](C/C=C\CCCC(=O)O)[C@@H](O)C[C@H]1O` (some centres unmarked), the EC50 in data set [1] is more than 10000 nM. Besides, in data set [4], the “FP/EP4 Ratio” value was more than 0.15 and the IC25 was 66.3 µM.
As for `CCCCC[C@H](O)/C=C/[C@@H]1[C@@H](C/C=C\CCCC(=O)O)[C@@H](O)C[C@H]1O` [PGF2α], the “ocular surface side effects” value in [5] (in vivo) was “ocular surface (conjunctival) hyperemia and foreign-body sensation”.
Turning to `CCCCC[C@H](O)/C=C/[C@@H]1[C@@H](C/C=C\CCCC(=O)OC(C)C)[C@@H](O)C[C@H]1O` [isopropyl ester of PGF2α], in [6] (attributed to more effective penetration through the cornea), the “hypotensive potency versus the parent compound PGF2α” value is “significantly greater hypotensive potency than the parent compound”. Moreover, in data set [6], the ocular hypotensive activity result is “the most potent ocular hypotensive agent ever reported”. Besides, in data set [5] (topical ocular use, humans), the “ocular surface side effects” value is “ocular surface (conjunctival) hyperemia and foreign-body sensation”.
In the case of `CCCCC[C@H](O)/C=C/[C@H]1[C@H](O)CC(=O)[C@@H]1C/C=C\CCCC(=O)O` [PGE2], the ocular hypotensive activity result in data set [6] was “possess ocular hypotensive activity; also recorded: highly effective ocular hypotensive agents”.
As to `CCCCC[C@H](O)/C=C/[C@@H]1[C@@H](CCCCCCC(=O)O)[C@@H](O)C[C@H]1O` [PGF1α], in data set [6], the ocular hypotensive activity result is reported as “highly effective ocular hypotensive agents”.
For `COC(=O)CCC/C=C\C[C@@H]1[C@@H](CNP(=O)(CCc2ccccc2)OC)[C@H](O)C[C@@H]1O` (some centres unmarked) [drawing 14], the values for the EC50 in data set [2], in [1] and in [7] were more than 10000 nM, 252 nM and more than 10 µM, respectively.
For the compound `COP(=O)(CCc1ccccc1)OC[C@@H]1[C@@H](C/C=C\CCCC(=O)O)[C@@H](O)C[C@H]1O` (some centres unmarked) [drawing 10], the EC50 was 10000 nM in [8]; 575 nM in [2]; more than 10000 nM in data set [3]; 195 nM in data set [1]; more than 10 µM in data set [7].
Regarding `COP(=O)(CCc1ccccc1)OC[C@@H]1[C@@H](C/C=C\CCCC(=O)O)[C@@H](O)C[C@H]1O` (stereo partly drawn) [Example 3, 7-[3α,5α-Dihydroxy-2-β-[[methoxy(2-phenylethyl)phosphinyl]oxymethyl]cyclopentyl]-5Z-heptenoic acid], in data set [9], the “Decrease in IOP (mm Hg) at 2 HR” value is -1.1 mm Hg, the “Decrease in IOP (mm Hg) at 4 HR” value is on record as -2.9 mm Hg, the “Decrease in IOP (mm Hg) at 6 HR” value was -3.5 mm Hg and the “Decrease in IOP (mm Hg) at 24 HR” value is 0.4 mm Hg.
For the compound `COP(=O)(CCc1ccccc1)NC[C@@H]1[C@@H](C/C=C\CCCC(=O)O)[C@@H](O)C[C@H]1O` (some centres unmarked), in data set [1], the EC50 was 2140 nM. In data set [4], the “FP/EP4 Ratio” value stood at 2.8 and the IC25 is 0.767 µM.
Turning to `COC(=O)CCC/C=C\C[C@@H]1[C@@H](CNP(=O)(CCc2ccccc2)OC)[C@H](O)C[C@@H]1O` (some centres unmarked) [Example 7], in data set [9], the “Decrease in IOP (mm Hg) at 2 HR” value is recorded as -3.3 mm Hg, the “Decrease in IOP (mm Hg) at 4 HR” value was -4.1 mm Hg, the “Decrease in IOP (mm Hg) at 6 HR” value is given as -5.1 mm Hg and the “Decrease in IOP (mm Hg) at 24 HR” value is listed as -3.5 mm Hg.
For the compound `CCCCC[C@@H](/C=C/[C@@H]1[C@@H](C/C=C\CCCC(=O)O)[C@@H](O)C[C@H]1OC(=O)C(C)(C)C)OC(=O)C(C)(C)C` [11,15-dipivaloyl PGF2α], in data set [6], the ocular hypotensive activity entry is reported as “known to have ocular hypotensive activity”.
